Publication PMC6472001, “Phenolic Compounds from Humulus lupulus as Natural Antimicrobial Products: New Weapons in the Fight against Methicillin Resistant Staphylococcus aureus, Leishmania mexicana and Trypanosoma brucei Strains” (Molecules, 2019)
In brackets after ≈: the same amount, converted by molar mass. Where two headings read alike, the source gives them in different places.

Key:
[1] = tested on: S. aureus T28.1 (MRSA); assay: Broth microdilution MIC; assay type: cell-based, Staphylococcus aureus
Method: (§1) The protocol employed was inspired by Abedini et al. with some modifications. Products were solubilized in DMSO and serially diluted two-fold in MH medium. A bacterial suspension at 10^5 CFU/mL was added to obtain a final volume of 200 µL. Final phenolic product concentrations in wells ranged from 625 to 2.4 µg/mL (exception for lupulone for which dilutions were continued until 0.3 µg/mL). […] Plates were incubated overnight with stirring (60 rpm) at 37 °C.
For the following experiments, the MRSA strain T28.1, isolated from a pathological sample of osteitis, was used. It was previously characterized by DNA biochips, which allowed highlighting some β-lactamases and the SCC-mec genes confirming the methicillin resistance. Moreover, genes for enzymes and proteins involved in the capsule biosynthesis (capH5, capJ5 and capK5) and several intracellular adhesion proteins implicated in biofilm formation (icaA, icaC and icaD) were present.

[2] = tested on: MRSA strains; assay: Broth microdilution MIC, range over strains; assay type: cell-based; conditions: Staphylococcus aureus, read-out: MICs towards MRSA strains
Method: as §1

[3] = tested on: selected S. aureus strains; assay: Broth microdilution MIC, range over strains; assay type: cell-based; conditions: Staphylococcus aureus; range over MRSA and MSSA strains of Table 3; read-out: MIC against selected S. aureus strains
Method: as §1

[4] = tested on: S. aureus T28.1; assay: Post-antibiotic effect (PAE); assay type: cell-based, Staphylococcus aureus; conditions: for Maximum Growth Retardation: 2 h exposure
Method: This method allows quantifying the delayed regrowth of a bacterial population following exposure to an active compound [76]. Stock solutions of xanthohumol, desmethylxanthohumol and lupulone were prepared in DMSO 20 times more concentrated than the desired final concentrations (MIC/4 to 4 × MIC). A 2 h pre-treatment with purified prenylated compounds was performed using 8.5 mL of BHI medium, 0.5 mL of purified product in DMSO and 1 mL of a bacterial suspension at 10^5 CFU/mL, incubated at 37 °C. […] The hop compound was then inactivated by a 1000-fold dilution. After inactivation, a growth curve was performed with counts at 30 min and every 2 h. The growth lag was quantified by comparison with the control, using the following formula: PAE=T−C
T is the time needed for the bacterial population to grow by 1 log(CFU/mL) at the given concentration, C is the corresponding time for the control (Figure 5)

[5] = tested on: S. aureus T28.1 biofilm; assay: Anti-biofilm: biofilm formation on synthetic bone substitute; assay type: cell-based, Staphylococcus aureus; conditions: at MIC
Method: β-Tricalcium phosphate discs (Cerasorb®, Curasan, Germany) were used as bone substitute. Non-glucose enriched BHI medium was used here, because the bacterial glucose metabolism causes an acidification of the culture medium which leads to the disintegration of the discs. Discs were introduced in a 24-well plate: 1.8 mL of BHI media were added with 0.1 mL of product in DMSO (5%) and 0.1 mL of a 10^5 CFU/mL bacterial suspension. Final concentrations of hop phenolic compounds were from MIC/4 to 4 × MIC. After 24 h at 37 °C, counts were performed in two steps. First, planktonic bacteria were counted from 100 µL of the culture supernatant by plating tenfold dilutions on MHA. Then, bacteria adhering to the discs were counted: discs were removed and washed with a CR solution, then, 10 mL of CR were added to each disk and treated 1 min by sonication (35 kHz) and 30 s by vortex. The obtained suspension was enumerated as previously. The detection threshold was also 1 log(CFU/mL).

[6] = tested on: J774 cells (monocyte macrophage); assay: Cytotoxicity / antiproliferative effect; assay type: cell-based, mouse
Method: Several human cell lines were used for the cytotoxic bioassays: non-cancer lung fibroblasts (WI-38), hepatocellular carcinoma (Hep-G2), osteosarcoma (MG-63) and the mouse monocyte macrophage J774. Cells were seeded into wells of a 96-well microplate in a Gibco™ Dulbecco’s modified eagles medium (DMEM), except for MG-63 which were cultivated in a minimum essential medium (MEM) (ThermoFisher Scientific, Illkirch-Graffenstaden, France). Both media were enriched with 10% FBS (ThermoFisher Scientific, France) and some antibiotics (mixture penicillin/streptomycin 100 UI/mL, Sigma Aldrich). After one or two days at 37 °C (5% of CO2), wells were emptied by suction. Cells were then treated with hops compounds (xanthohumol, desmethylxanthohumol, humulone, lupulone) in DMSO at 0.2% in the culture medium, to obtain a final volume of 100 µL in wells (negative control: 0.2% DMSO). Camptothecin was used as a positive control. After 48 to 72 h exposure, culture medium was replaced by 10% of Alamar blue or 3-(4,5-dimethylthiazol-2-yl)-2,5-diphenyltetrazolium bromide (MTT) in the medium (ThermoFisher Scientific®, Illkirch, France) and plates were incubated the time necessary to the reaction. Results were measured respectively by fluorescence (excitation 530 nm and emission 590 nm) or by optical density at 550 nm. The IC50 of each product was determined using GraphPad Prism (version 5.01).

[7] = tested on: biofilm formation; parameters: method as in PMID 24175280; conditions: at the MIC; cited from earlier work
[8] = tested on: human hepatocellular carcinoma; parameters: method as in PMID 18814205; conditions: cited from earlier work
[9] = tested on: lung cell line; parameters: method as in PMID 26664015; conditions: cited from earlier work
[10] = tested on: mice; parameters: method as in PMID 20427021; conditions: approximately 1000 mg/kg of body weight of mice; cited from earlier work
[11] = tested on: humans; parameters: method as in PMID 24038952; conditions: up to 180 mg in humans for a short intake; cited from earlier work
[12] = tested on: Plasmodium falciparum; parameters: method as in PMID 15824094; conditions: cited from earlier work
[13] = tested on: Leishmania amazonensis; parameters: method as in PMID 27938439; conditions: cited from earlier work
[14] = Staphylococcus aureus, S. aureus T28.1 (MRSA), read-out: MIC
[15] = Staphylococcus aureus, S. aureus T28.1 (MRSA), value in parentheses, read-out: MIC
[16] = Mus musculus, read-out: IC50 ± SD
[17] = Mus musculus, value in parentheses, read-out: IC50 (converted)

Compound | MIC [1, 14] [µg/mL] | MIC [1, 15] [µM] | MIC [2] [µg/mL] | MIC [3] [µg/mL] | Maximum Growth Retardation ([4]; 2 × MIC) [h] | Maximum Growth Retardation ([4]; 4 × MIC) [h] | Maximum Growth Retardation ([4]; MIC/2) [h] | Maximum Growth Retardation ([4]; MIC) [h] | Biofilm formation on bone substitute discs [5] | IC50 [6, 16] [µg/mL] | IC50 [6, 17] [µM] | also measured
CC(C)=CCc1c(O)cc(O)c(C(=O)/C=C/c2ccc(O)cc2)c1O [DMX, desmethylxanthohumol] | 39 | 115 | 19.5 to 39 (≈ 57.3 to 115 µM) | 19.5 to 39 (≈ 57.3 to 115 µM) | 2.29 | 2.34 | 2.10 | 2.32 | significant decrease | 9.7 ± 1 | 28.5 | –
COc1cc(O)c(CC=C(C)C)c(O)c1C(=O)/C=C/c1ccc(O)cc1 [XN, xanthohumol] | 9.8 | 27.7 | 9.8 to 19.5 (≈ 27.7 to 55 µM) | 9.8 to 19.5 (≈ 27.7 to 55 µM) | 2.05 | 3.29 | 1.34 | 2.23 | – | 3.4 ± 0.5 | 9.6 | Inhibition of biofilm formation [7]: 86.5%; IC50 [8]: about 75 µg/mL; IC50 [9]: ~100 µg/mL (≈ 282 µM); Safety in vivo [10]: good safety; Safety in vivo [11]: good safety; IC50 [12]: in the µM range; IC50 [13]: in the µM range
lupulone | – | – | – | – | – | 0.47 | 0.26 | 0.53 | significant decrease | – | – | MIC ([1]; S. aureus T28.1 (MRSA)): 1.2 µg/mL; MIC ([1]; S. aureus T28.1 (MRSA), value in parentheses, read-out: MIC): 2.9 µM; MIC ([1]; strain MRSA T28.1): 1.2 µg/mL; Maximum delay after inactivation ([4]; over all concentrations): ~55 min; IC50 ± SD [6]: 1.5 ± 0.1 µg/mL; IC50 ([6]; value in parentheses, read-out: IC50 (converted)): 3.6 µM
